What was measured:
Assay type in all cases: in vivo
[1] = system: barnyardgrass (Echinochloa crus-galli); test: Test A preemergence, barnyardgrass; settings: Preemergence; for Plant response rating, Barnyardgrass: 0 to 100 scale (0 no effect, 100 complete control)
Summary of the method: (§1)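 Test chemicals, formulated in a non-phytotoxic solvent mixture with surfactant, were sprayed postemergence on plants 2 to 10 cm tall at the one- to two-leaf stage. Preemergence treatment was a directed soil spray onto freshly seeded pots. Both used a loam soil and sand blend.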

kochia (Bassia scoparia) [2] = test: Test A preemergence, kochia; settings: Preemergence; for Plant response rating, Kochia: 0 to 100 scale (0 no effect, 100 complete control); for Kochia plant response rating: visual injury on 0 to 100 scale (0 no effect, 100 complete control), approximately 10 days
Summary of the method: as §1

[3] = system: ragweed (common ragweed, Ambrosia artemisiifolia); test: Test A preemergence, ragweed; settings: Preemergence; for Plant response rating, Ragweed: 0 to 100 scale (0 no effect, 100 complete control); for Ragweed plant response rating: visual injury on 0 to 100 scale (0 no effect, 100 complete control), approximately 10 days
Summary of the method: as §1

[4] = system: Ryegrass, Italian (Italian ryegrass, Lolium multiflorum); test: Test A preemergence, Ryegrass, Italian; settings: Preemergence; for Plant response rating, Ryegrass, Italian: 0 to 100 scale (0 no effect, 100 complete control); for Ryegrass, Italian plant response rating: visual injury on 0 to 100 scale (0 no effect, 100 complete control), approximately 10 days
Summary of the method: as §1

[5] = system: Foxtail, Giant (giant foxtail, Setaria faberi); test: Test A preemergence, Foxtail, Giant; settings: Preemergence; for Plant response rating, Foxtail, Giant: 0 to 100 scale (0 no effect, 100 complete control); for Foxtail, Giant plant response rating: visual injury on 0 to 100 scale (0 no effect, 100 complete control), approximately 10 days
Summary of the method: as §1

[6] = system: pigweed (Amaranthus retroflexus); test: Test A preemergence, pigweed; settings: for Plant response rating, Pigweed: 0 to 100 scale (0 no effect, 100 complete control); for Pigweed plant response rating: visual injury on 0 to 100 scale (0 no effect, 100 complete control), approximately 10 days
Summary of the method: (§2)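 Directed soil spray at planting gave the preemergence treatment, while foliar application to one- to two-leaf seedlings (2–10 cm) gave the postemergence one; pots held a loam and sand mixture and chemicals were carried in a non-phytotoxic solvent with surfactant.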

[7] = system: barnyardgrass (Echinochloa crus-galli); test: Test A postemergence, barnyardgrass; settings: Postemergence, 0 to 100 scale (0 no effect, 100 complete control); for Plant response rating, Barnyardgrass: 125 g ai/ha; for Barnyardgrass plant response rating: 500 g ai/ha, visual injury vs untreated controls after approx. 10 days
Summary of the method: as §2

kochia (Bassia scoparia) [8] = test: Test A postemergence, kochia; settings: Postemergence, 0 to 100 scale (0 no effect, 100 complete control); for Plant response rating, Kochia: 125 g ai/ha; for Kochia plant response rating: 500 g ai/ha, visual injury vs untreated controls after approx. 10 days
Summary of the method: as §1

[9] = system: ragweed (common ragweed, Ambrosia artemisiifolia); test: Test A postemergence, ragweed; settings: Postemergence, 0 to 100 scale (0 no effect, 100 complete control); for Plant response rating, Ragweed: 125 g ai/ha; for Ragweed plant response rating: 500 g ai/ha, visual injury vs untreated controls after approx. 10 days
Summary of the method: as §1

[10] = system: Ryegrass, Italian (Italian ryegrass, Lolium multiflorum); test: Test A postemergence, Ryegrass, Italian; settings: Postemergence, 0 to 100 scale (0 no effect, 100 complete control); for Plant response rating, Ryegrass, Italian: 125 g ai/ha; for Ryegrass, Italian plant response rating: 500 g ai/ha, visual injury vs untreated controls after approx. 10 days
Summary of the method: as §1

[11] = system: Foxtail, Giant (giant foxtail, Setaria faberi); test: Test A postemergence, Foxtail, Giant; settings: Postemergence, 0 to 100 scale (0 no effect, 100 complete control); for Plant response rating, Foxtail, Giant: 125 g ai/ha; for Foxtail, Giant plant response rating: 500 g ai/ha, visual injury vs untreated controls after approx. 10 days
Summary of the method: as §1

[12] = system: pigweed (Amaranthus retroflexus); test: Test A postemergence, pigweed; settings: Postemergence, 0 to 100 scale (0 no effect, 100 complete control); for Plant response rating, Pigweed: 125 g ai/ha; for Pigweed plant response rating: 500 g ai/ha, visual injury vs untreated controls after approx. 10 days
Summary of the method: as §1

[13] = system: wheat (Triticum aestivum); test: Test A postemergence, wheat; settings: Postemergence, 0 to 100 scale (0 no effect, 100 complete control); for Plant response rating, Wheat: 125 g ai/ha; for Wheat plant response rating: 500 g ai/ha, visual injury vs untreated controls after approx. 10 days
Summary of the method: as §2

corn (Zea mays) = test: Test A postemergence, corn; settings: Postemergence, 0 to 100 scale (0 no effect, 100 complete control); for Plant response rating, Corn: 125 g ai/ha; for Corn plant response rating: 500 g ai/ha, visual injury vs untreated controls after approx. 10 days
Summary of the method: as §1

[14] = system: blackgrass (Alopecurus myosuroides); test: Test A postemergence, blackgrass; settings: Postemergence, 0 to 100 scale (0 no effect, 100 complete control); for Plant response rating, Blackgrass: 125 g ai/ha; for Blackgrass plant response rating: 500 g ai/ha, visual injury vs untreated controls after approx. 10 days
Summary of the method: as §1

[15] = system: galium (catchweed bedstraw, Galium aparine); test: Test A postemergence, galium; settings: Postemergence, 0 to 100 scale (0 no effect, 100 complete control); for Plant response rating, Galium: 125 g ai/ha; for Galium plant response rating: 500 g ai/ha, visual injury vs untreated controls after approx. 10 days
Summary of the method: as §2

[16] = 125 g ai/ha, visual injury, approx. 10 days

| SMILES | Plant response rating, Barnyardgrass [1, 16] | Plant response rating, Barnyardgrass ([1]; 500 g ai/ha) | Plant response rating, Kochia (kochia (Bassia scoparia) [2]; [16]) | Plant response rating, Kochia (kochia (Bassia scoparia) [2]; 500 g ai/ha) | Plant response rating, Ragweed [3, 16] | Plant response rating, Ragweed ([3]; 500 g ai/ha) | Plant response rating, Ryegrass, Italian [4, 16] | Plant response rating, Ryegrass, Italian ([4]; 500 g ai/ha) | Plant response rating, Foxtail, Giant [5, 16] | Plant response rating, Foxtail, Giant ([5]; 500 g ai/ha) | Barnyardgrass plant response rating [7] | Kochia plant response rating (kochia (Bassia scoparia) [8]) | Ragweed plant response rating [9] | Ryegrass, Italian plant response rating [10] | Foxtail, Giant plant response rating [11] | Pigweed plant response rating [12] | Wheat plant response rating [13] | Corn plant response rating (corn (Zea mays)) | Blackgrass plant response rating [14] | Galium plant response rating [15] | also measured |
| --- | --- | --- | --- | --- | --- | --- | --- | --- | --- | --- | --- | --- | --- | --- | --- | --- | --- | --- | --- | --- | --- |
| CC(=O)N(c1cc(C2=NOC3(CCCC3)C2)c(C)cc1C)S(=O)(=O)C(F)(F)F [Compound 220] | 100 | 100 | 20 | 70 | 30 | 60 | 100 | 100 | 100 | 100 | 70 | 60 | 40 | 20 | 50 | 70 | 60 | 30 | 30 | 80 | Plant response rating, Pigweed [6, 16]: 70; Plant response rating, Pigweed ([6]; 500 g ai/ha): 100; Plant response rating, Barnyardgrass [7]: 20; Plant response rating, Kochia (kochia (Bassia scoparia) [8]): 20; Plant response rating, Ragweed [9]: 0; Plant response rating, Ryegrass, Italian [10]: 0; Plant response rating, Foxtail, Giant [11]: 0; Plant response rating, Pigweed [12]: 0; Plant response rating, Wheat [13]: 20; Plant response rating, Corn (corn (Zea mays)): 0; Plant response rating, Blackgrass [14]: 0; Plant response rating, Galium [15]: 60 |
| Cc1cc(C)c(N(S(=O)(=O)C(F)(F)F)S(=O)(=O)C(F)(F)F)cc1-c1cc(Br)nn(C)c1=O [Compound 67] | – | 100 | – | 70 | – | 60 | – | 90 | – | 100 | 40 | 40 | 10 | 60 | 70 | 80 | 60 | 0 | 60 | 60 | Barnyardgrass plant response rating ([1]; 125 g ai/ha, visual injury on 0 to 100 scale (0 no effect, 100 complete control), approximately 10 days): 70; Kochia plant response rating (kochia (Bassia scoparia) [2]; 125 g ai/ha): 0; Ragweed plant response rating ([3]; 125 g ai/ha): 0; Ryegrass, Italian plant response rating ([4]; 125 g ai/ha): 80; Foxtail, Giant plant response rating ([5]; 125 g ai/ha): 90; Pigweed plant response rating ([6]; 125 g ai/ha): 50; Plant response rating, Pigweed ([6]; 500 g ai/ha): 80; Plant response rating, Barnyardgrass ([7]; visual injury approx. 10 days): 0; Plant response rating, Kochia (kochia (Bassia scoparia) [8]; visual injury approx. 10 days): 10; Plant response rating, Ragweed ([9]; visual injury approx. 10 days): 0; Plant response rating, Ryegrass, Italian ([10]; visual injury approx. 10 days): 0; Plant response rating, Foxtail, Giant ([11]; visual injury approx. 10 days): 10; Plant response rating, Pigweed ([12]; visual injury approx. 10 days): 30; Plant response rating, Wheat ([13]; visual injury approx. 10 days): 30; Plant response rating, Corn (corn (Zea mays); visual injury approx. 10 days): 0; Plant response rating, Blackgrass ([14]; visual injury approx. 10 days): 0; Plant response rating, Galium ([15]; visual injury approx. 10 days): 50 |
| Cc1cc(F)c(C(=O)N2CCOCC2)cc1N(S(=O)(=O)C(F)(F)F)S(=O)(=O)C(F)(F)F [Compound 237] | 40 | 30 | 90 | – | 30 | – | 20 | – | 20 | – | 40 | 90 | 80 | 40 | 40 | 60 | 0 | 20 | 0 | 50 | Kochia plant response rating (kochia (Bassia scoparia) [2]; 500 g ai/ha): 90; Ragweed plant response rating ([3]; 500 g ai/ha): 80; Ryegrass, Italian plant response rating ([4]; 500 g ai/ha): 50; Foxtail, Giant plant response rating ([5]; 500 g ai/ha): 40; Plant response rating, Pigweed [6, 16]: 80; Pigweed plant response rating ([6]; 500 g ai/ha): 100; Plant response rating, Barnyardgrass [7]: 20; Plant response rating, Kochia (kochia (Bassia scoparia) [8]): 70; Plant response rating, Ragweed [9]: 50; Plant response rating, Ryegrass, Italian [10]: 40; Plant response rating, Foxtail, Giant [11]: 20; Plant response rating, Pigweed [12]: 30; Plant response rating, Wheat [13]: 0; Plant response rating, Corn (corn (Zea mays)): 0; Plant response rating, Blackgrass [14]: 0; Plant response rating, Galium [15]: 0 |
